Measured values as given in patent US20110039869A1, “COMPOSITION FOR INHIBITING THE ACTIVITY OF INOSITOL 1,4,5-TRIPHOSPHATE RECEPTOR SUBTYPE III” (Korea Institute of Science and Technology, priority 2008, published 2011).
Entries after “also recorded” stand apart in the source; their conditions may differ. Read-outs that look alike come from different tables or passages of the source.

Columns and labels:
U178MG cells [1] = assay: Ca2+ imaging: block against agonist-induced intracellular Ca2+ release in U178MG cells; format: cell-based, human; conditions: for TFLLR induced Ca2+ release: 10 mM compound; for IC50: Homo sapiens, U178MG cells
Experimental: 100 seconds after the treatment, the cells were divided into two separate groups, each being stimulated with GPCR (G-protein coupled receptors) agonists, i.e., […] or 10 μM bradykinin, respectively. […] The measurement of Ca^2+ concentration through the measurement of inward current was conducted as described in ‘Justin Lee, et al., The Journal of Physiology, Astrocytic control of synaptic NMDA receptor, 2007’, which is hereby incorporated by reference for all purposes as if fully set forth herein.
After 100 seconds, the cells were stimulated with 30 μM TFLLR.
Error bars indicate SEM. […] Such substance may include: iso-propyl theophylline, 7-(β-3-hydroxyethyl)theophylline, xanthine, theophylline, and 1,7-dimethyl-3-isobutyl xanthine.

[2] = tested on: U178MG, U87MG, wtEGFR, and ΔEGRF cells; assay: Scrape motility assay; format: cell-based, human; conditions: 24 hours; 10 mM caffeine, 1 μM thapsigargin, 10 μM 2-APB, 20 μM CPA, 50 μM BAPTA-AM, 10 μM ryanodine
Experimental: The cell lines were obtained from Emory Uni (U178MG) and ATCC (U87MG, T98G, and M59K). All cell lines were grown as monolayers in 12-well culture plates in serum-containing media (Emory Uni). […] To prevent proliferation, fluorodeoxyuridine (FdU/U; Sigma) was added. After incubation for 24 hours, the cells were fixed in 4% paraformaldehyde. The area of repopulation of three 10× fields within the scrape areas were determined and the mean percentage of scrape area to wound closure was determined.

[3] = tested on: shRNA for IP3R3 expressing U178MG cells; assay: Block against Ca2+ responses in U178MG cells expressing shRNA for IP3R3; format: cell-based, human
Experimental: FIGS. 6d and 6e are Ca^2+ imaging result for U178MG cells, which were transfected with GFP-attached shRNA for IP3R3 via electroporation.

[4] = tested on: U178MG, U87MG, U373MG, and T98G cells; assay: Matrigel invasion assay; format: cell-based, human; conditions: 24 h; 1, 2, 5, 10 mM caffeine; dose dependent
Experimental: The cell lines were obtained from ATCC. […] Cell invasion was assayed using transwell inserts (Corning, N.Y., USA) containing […] pore size in 24-well culture plates. For invasion assay, inserts were coated with 2 mg/ml basement membrane Matrigel (BD Bioscience, Bedford, Mass., USA). 1×10^5 cells in serum-free medium (FBS, DMEM, from GIBCO, Invitrogen, USA) were plated onto the upper side of insert and complete medium was placed in the lower chamber to act as a chemoattractant. After 24 h of incubation at 37° C., the cells on the upper side of insert were removed by wiping with a cotton swab and cells migrated to the lower side of membrane were stained with DAPI (Molecular Probes, Invitrogen, USA) and randomly photographed with microscopy at ×40 magnification. The mean number of untreated cells was considered as 100% invasion.

glioma = assay: Soft agar assay (colony formation); format: cell-based, human; conditions: 0.5, 1, 2, 5, 10 mM caffeine; 14 to 17 days; dose dependent
Experimental: Cells (1×10^4) were seeded into 6-well plates in a soft agar (0.3%, Difco) overlaying a 0.6% base agar. […] Cells were incubated at 37° C. for 14 to 17 days to allow colonies to develop. Afterward colonies were stained with 0.05% cresyl violet and photographed. The group without caffeine treatment was used as a control. Each assay was done in triplicate (n=3).

U178MG glioma cells = assay: Invasion of U178MG glioma cells in organotypic hippocampal slice cultures (OHSCs); format: cell-based, human; conditions: 1, 2, 5, 10 mM caffeine; 120 hours vs 1 hour; proportional to concentration
U87MG cells [5] = assay: Xenograft tumor growth assay; format: in vivo, athymic mice (Balb/c nu/nu); conditions: caffeine 1 mg/ml in drinking water from day 7; 4 weeks
Experimental: Five-week-old athymic mice (Balb/c nu/nu) were obtained from Central Lab. Animal Inc. (Japan). For the xenograft tumor growth assay, U87MG cells (3×10^5 cells/150 ul PBS) were injected subcutaneously into the right flanks of the mice (n=5 to 10 mice per group), and the experiment was conducted in triplicate. […] The control animals were given distilled water. Tumor mass was estimated twice per week for 4 weeks, and tumor volumes were calculated by the formula: […]

U178MG cells [6] = assay: Dependence of caffeine action on store-operated channels or store depletion; format: cell-based, human; conditions: 10 mM caffeine; thapsigargin 1 μM, cyclopiazonic acid 20 μM
Experimental: Firstly, 1 μM thapsigargin was applied for 2 min in Ca^2+ free HEPES buffer. After depletion of Ca^2+ from endoplasmic reticulum, extra solution was changed to 2 mM Ca^2+HEPES buffer.

U178MG cells [7] = assay: Live imaging of cell migration; format: cell-based, human; conditions: 10 minute intervals for 9 hours
[8] = tested on: GBM, U178MG, T98G, U87MG and HEK293; assay: Block against GPCR agonist-induced intracellular Ca2+ release in various cell types; format: cell-based, human; conditions: 10 mM caffeine
Experimental: The cell lines were obtained from Department of Neurosurgery, Seoul National University College of Medicine (GBM), Emory Uni. ([…]) and ATCC (T98G, U87MG, and HEK293), respectively. […] Error bars are mean±SEM.

U87MG cells [9] = assay: Orthotropic implantation model, survival rate; conditions: 1 mg/ml caffeine containing drinking water

Compound: COc1ccc2c(c1)CC[C@@H]1[C@@H]2CC[C@]2(C)[C@@H](NCCCCCCN3C(=O)C=CC3=O)CC[C@@H]12 [U73122]
- release of Ca2+ from intracellular stores in response to activation of GPCRs and RTKs (U178MG cells [1]; GBM cells): completely inhibited

Compound: NCCOB(c1ccccc1)c1ccccc1 [2-APB]
- motility (wound closure by cell migration) [2]: mimicked

Compound: O=c1[nH]c(=O)c2[nH]cnc2[nH]1 [xanthine]
- blocking effect on IP3R3 mediated-Ca2+ response (U178MG cells [1]; caffeine analogs, FIG. 10c): excellent selective blocking effect

Compound: C/C=C(/C)C(=O)O[C@H]1C(C)=C2[C@H]([C@@H]1OC(=O)CCCCCCC)[C@@](C)(OC(C)=O)C[C@H](OC(=O)CCC)[C@@]1(O)[C@H]2OC(=O)[C@@]1(C)O [thapsigargin]
- subsequent induction increase in [Ca2+]i by bradykinin after store depletion (U178MG cells [1]; store depletion by thapsigargin): completely inhibited
- motility (wound closure by cell migration) [2]: mimicked

Compound: Cn1c(=O)c2c(ncn2CCO)n(C)c1=O [7-(β-3-hydroxyethyl)theophylline]
- blocking effect on IP3R3 mediated-Ca2+ response (U178MG cells [1]; caffeine analogs, FIG. 10c): excellent selective blocking effect

Compound: CC(=O)OCOC(=O)CN(CC(=O)OCOC(C)=O)c1ccccc1OCCOc1ccccc1N(CC(=O)OCOC(C)=O)CC(=O)OCOC(C)=O [BAPTA-AM]
- motility (wound closure by cell migration) [2]: mimicked

Compound: Cn1c(=O)c2c(ncn2C)n(C)c1=O [caffeine]
- increase of [Ca2+]i after stimulation with EGF or bradykinin (U178MG cells [1]; 10 mM caffeine, 100 ng/ml EGF or 10 μM bradykinin): no significant increase
- TFLLR induced Ca2+ release (U178MG cells [1]; 30 μM TFLLR): inhibited
- increase of TFLLR-induced intracellular Ca2+ concentration (U178MG cells [1]; 0.3, 3, 10, 30 mM caffeine, 30 μM TFLLR, concentration dependent): inhibits the increase
- IC50 (U178MG cells [1]; EGF 100 ng/ml, read-out: IC50, Ca2+ release evoked by EGF): 1.87 mM
- IC50 (U178MG cells [1]; TFLLR 30 μM, read-out: IC50, Ca2+ release evoked by TFLLR): 2.45 mM
- block against Ca2+ responses, IP3R3 silenced by shRNA [3]: 20%
- invasion through Matrigel [4]: reduced the invasion rate; also recorded: significantly inhibited
- proliferation / anchorage-independent growth (colonies) (glioma): reduced the anchorage-independent growth; also recorded: significantly inhibited
- invasion area of DiI-stained cells (U178MG glioma cells): invasion area was reduced
- increase of tumor mass (U87MG cells [5]): significantly inhibited
- cause of Ca2+ block (store depletion, store-operated channels) (U178MG cells [6]): not due to Ca^2+ depletion or block of Ca^2+ flow through TRPC
- migration of U178MG cells (U178MG cells [7]): significantly slowed down
- GPCR-induced intracellular Ca2+ release in GBM, U178MG, T98G, U87MG and HEK293 [8]: inhibited
- degree of inhibition of Ca2+ responses, U178MG cells compared with other cell types [8]: highest blocking effect
- intracellular Ca2+ release ([8]; 10 μM bradykinin): blocked
- intracellular Ca2+ release / Ca2+ responses, HEK293T cell line ([8]; 30 μM TFLLR): blocked; also recorded: lowest blocking effect
- survival rate (U87MG cells [9]): significantly increase the survival rate

Compound: ryanodine
- motility (wound closure by cell migration) [2]: did not show any cell migration as such

Compound: Cn1c(=O)c2[nH]cnc2n(C)c1=O [theophylline]
- blocking effect on IP3R3 mediated-Ca2+ response (U178MG cells [1]; caffeine analogs, FIG. 10c): excellent selective blocking effect

Compound: CC(C)n1cnc2c1c(=O)n(C)c(=O)n2C [iso-propyl theophylline]
- blocking effect against Ca2+ release (% block) (U178MG cells [1]; caffeine analogs, FIG. 10c): some degree of blocking effects
- blocking effect on IP3R3 mediated-Ca2+ response (U178MG cells [1]; caffeine analogs, FIG. 10c): excellent selective blocking effect

Compound: CCn1cnc2c1c(=O)n(C)c(=O)n2C [7-ethyl theophylline]
- TFLLR induced Ca2+ release (U178MG cells [1]; 30 μM TFLLR): no inhibition

Compound: CC(C)Cn1c(=O)n(C)c(=O)c2c1ncn2C [1,7-dimethyl-3-isobutyl xanthine]
- blocking effect on IP3R3 mediated-Ca2+ response (U178MG cells [1]; caffeine analogs, FIG. 10c): excellent selective blocking effect
